Results published in the CheMixHub viscosity set.

Assay: xn = mol fraction of the nth substance listed

CC(C)CCl + C1CCOC1
viscosity [mPa·s], 101 kPa
Conditions	298.15 K	313.15 K
x2 = 0.0537	0.4311	0.368
x2 = 0.1037	0.4325	0.3694
x2 = 0.2081	0.4353	0.3723
x2 = 0.3079	0.4379	0.3751
x2 = 0.41	0.4409	0.3781
x2 = 0.5085	0.4442	0.381
x2 = 0.5964	0.4472	0.3837
x2 = 0.705	0.4512	0.3871
x2 = 0.8051	0.455	0.3904
x2 = 0.8989	0.4589	0.3938
x2 = 0.951	0.461	0.3957

ClC(Cl)=C(Cl)Cl + C1CCOC1
303.15 K, 101 kPa
Conditions	viscosity [mPa·s]
x2 = 0.0667	0.7821
x2 = 0.1429	0.763
x2 = 0.2457	0.7362
x2 = 0.3692	0.7008
x2 = 0.4384	0.6795
x2 = 0.5309	0.6487
x2 = 0.6897	0.5914
x2 = 0.7605	0.5641
x2 = 0.8435	0.5312
x2 = 0.9213	0.4988

ClC(Cl)=C(Cl)Cl + C1COCCO1
303.15 K, 101.33 kPa
Conditions	viscosity [mPa·s]
x2 = 0.0711	0.8321
x2 = 0.1527	0.8661
x2 = 0.2465	0.8991
x2 = 0.3656	0.9331
x2 = 0.4126	0.9447
x2 = 0.5332	0.9725
x2 = 0.6532	0.9982
x2 = 0.7921	1.03
x2 = 0.8937	1.055
x2 = 0.9581	1.074

O=[N+]([O-])c1ccccc1 + C1COCCO1
303.15 K, 101 kPa
Conditions	viscosity [mPa·s]
x1 = 0.0852	1.058
x1 = 0.1732	1.058
x1 = 0.265	1.087
x1 = 0.3592	1.107
x1 = 0.4563	1.148
x1 = 0.5574	1.212
x1 = 0.6625	1.274
x1 = 0.7711	1.369
x1 = 0.8829	1.47

ClC(Cl)=C(Cl)Cl + CC1CCCCC1
303.15 K, 101 kPa
Conditions	viscosity [mPa·s]
x1 = 0.1166	0.637
x1 = 0.2246	0.648
x1 = 0.3047	0.658
x1 = 0.4335	0.679
x1 = 0.5554	0.708
x1 = 0.6523	0.734
x1 = 0.77	0.762
x1 = 0.8108	0.773
x1 = 0.8864	0.79
x1 = 0.9342	0.801

C1CCC2CCCCC2C1 (centres undefined) + CC12CC3CC(C1)CC(C)(C3)C2
viscosity [mPa·s], 100 kPa
Conditions	x2 = 0.1034	x2 = 0.2043	x2 = 0.305	x2 = 0.4034	x2 = 0.5024	x2 = 0.6048	x2 = 0.7046	x2 = 0.8094	x2 = 0.9013
293.15 K	2.607	2.713	2.812	2.919	3.039	3.167	3.31	3.465	3.622
298.15 K	2.361	2.449	2.53	2.628	2.728	2.844	2.967	3.102	3.237
303.15 K	2.148	2.227	2.299	2.384	2.468	2.57	2.675	2.799	2.909
313.15 K	1.802	1.86	1.917	1.98	2.046	2.125	2.206	2.298	2.385
323.15 K	1.505	1.547	1.592	1.641	1.697	1.759	1.825	1.902	1.974

CCCCCO + CC#N
viscosity [mPa·s], 101 kPa
Conditions	298.15 K	303.15 K	308.15 K
x2 = 0.1083	2.485	1.966	1.752
x2 = 0.1933	1.918	1.703	1.519
x2 = 0.2503	1.717	1.477	1.334
x2 = 0.3407	1.33	1.2	1.088
x2 = 0.4797	0.963	0.879	0.804
x2 = 0.5899	0.747	0.688	0.636
x2 = 0.6833	0.619	0.569	0.527
x2 = 0.7642	0.525	0.486	0.458
x2 = 0.8347	0.452	0.428	0.41
x2 = 0.8958	0.418	0.392	0.369
x2 = 0.9508	0.374	0.357	0.342

CN(C)C=O + CC#N
Conditions	viscosity [mPa·s]
298.15 K, 101 kPa, x2 = 0.0113	0.794
298.15 K, 101 kPa, x2 = 0.0144	0.792
298.15 K, 101 kPa, x2 = 0.0841	0.761
298.15 K, 101 kPa, x2 = 0.103	0.747
298.15 K, 101 kPa, x2 = 0.1527	0.712
298.15 K, 101 kPa, x2 = 0.2044	0.685
298.15 K, 101 kPa, x2 = 0.2682	0.654
298.15 K, 101 kPa, x2 = 0.3131	0.615
298.15 K, 101 kPa, x2 = 0.3696	0.598
298.15 K, 101 kPa, x2 = 0.3798	0.603
298.15 K, 101 kPa, x2 = 0.4759	0.552
298.15 K, 101 kPa, x2 = 0.5317	0.529
298.15 K, 101 kPa, x2 = 0.5759	0.492
298.15 K, 101 kPa, x2 = 0.6348	0.448
298.15 K, 101 kPa, x2 = 0.6876	0.499
298.15 K, 101 kPa, x2 = 0.743	0.408
298.15 K, 101 kPa, x2 = 0.7906	0.382
298.15 K, 101 kPa, x2 = 0.8453	0.382
298.15 K, 101 kPa, x2 = 0.8954	0.345
298.15 K, 101 kPa, x2 = 0.9485	0.346
298.15 K, 101 kPa, x2 = 0.9723	0.333
303.15 K, 101 kPa, x2 = 0.1176	0.6994
303.15 K, 101 kPa, x2 = 0.2399	0.6372
303.15 K, 101 kPa, x2 = 0.4348	0.5495
303.15 K, 101 kPa, x2 = 0.5933	0.4816
303.15 K, 101 kPa, x2 = 0.7275	0.4283
303.15 K, 101 kPa, x2 = 0.8419	0.3842
303.15 K, 101 kPa, x2 = 0.9418	0.3496
303.15 K, 101.33 kPa, x2 = 0.0953	0.7392
303.15 K, 101.33 kPa, x2 = 0.1981	0.6991
303.15 K, 101.33 kPa, x2 = 0.3038	0.6537
303.15 K, 101.33 kPa, x2 = 0.3988	0.6046
303.15 K, 101.33 kPa, x2 = 0.5	0.5476
303.15 K, 101.33 kPa, x2 = 0.6013	0.494
303.15 K, 101.33 kPa, x2 = 0.6983	0.4471
303.15 K, 101.33 kPa, x2 = 0.8009	0.4023
303.15 K, 101.33 kPa, x2 = 0.8992	0.3607

ClC(Cl)=C(Cl)Cl + CC#N
303.15 K, 101.32 kPa
Conditions	viscosity [mPa·s]
x2 = 0.1294	0.7489
x2 = 0.1929	0.7334
x2 = 0.3101	0.699
x2 = 0.4022	0.6632
x2 = 0.4671	0.631
x2 = 0.5673	0.5728
x2 = 0.6707	0.505
x2 = 0.7358	0.4619
x2 = 0.846	0.3947
x2 = 0.9295	0.3522

c1ccccc1 + CC#N
101 kPa
Conditions	viscosity [mPa·s]
298.15 K, x2 = 0.0325	0.5825
298.15 K, x2 = 0.0341	0.58
298.15 K, x2 = 0.0416	0.5745
298.15 K, x2 = 0.0854	0.574
298.15 K, x2 = 0.142	0.5155
298.15 K, x2 = 0.2097	0.493
298.15 K, x2 = 0.2578	0.4835
298.15 K, x2 = 0.3076	0.479
298.15 K, x2 = 0.3588	0.459
298.15 K, x2 = 0.4192	0.4365
298.15 K, x2 = 0.4751	0.4295
298.15 K, x2 = 0.5205	0.4045
298.15 K, x2 = 0.5786	0.394
298.15 K, x2 = 0.6344	0.388
298.15 K, x2 = 0.6908	0.375
298.15 K, x2 = 0.7377	0.379
298.15 K, x2 = 0.7901	0.369
298.15 K, x2 = 0.7943	0.3555
298.15 K, x2 = 0.8416	0.3535
298.15 K, x2 = 0.8962	0.3455
298.15 K, x2 = 0.9472	0.3275
308.15 K, x1 = 0.1018	0.3278
308.15 K, x1 = 0.2042	0.3407
308.15 K, x1 = 0.303	0.3576
308.15 K, x1 = 0.4008	0.378
308.15 K, x1 = 0.4892	0.3939
308.15 K, x1 = 0.5921	0.4163
308.15 K, x1 = 0.6906	0.4413
308.15 K, x1 = 0.8017	0.4762
308.15 K, x1 = 0.8951	0.4954

CCCCC(C)=O + CC(=O)CC(C)C
298.15 K, 101 kPa
Conditions	viscosity [mPa·s]
x2 = 0.1164	0.581
x2 = 0.2196	0.575
x2 = 0.3357	0.571
x2 = 0.4413	0.566
x2 = 0.5503	0.562
x2 = 0.6632	0.558
x2 = 0.7765	0.553
x2 = 0.8841	0.548

COCC(C)O (centres undefined) + CC(=O)CC(C)C
298.15 K, 101 kPa
Conditions	viscosity [mPa·s]
x2 = 0.1057	1.373
x2 = 0.2037	1.167
x2 = 0.3075	1.006
x2 = 0.4185	0.875
x2 = 0.5295	0.774
x2 = 0.6413	0.696
x2 = 0.7612	0.63
x2 = 0.8745	0.582

O=[N+]([O-])c1ccccc1 + CC(=O)O
viscosity [mPa·s], 101 kPa
Conditions	x2 = 0.165	x2 = 0.3078	x2 = 0.4326	x2 = 0.5425	x2 = 0.6402	x2 = 0.7274	x2 = 0.8059	x2 = 0.8768	x2 = 0.9412
298.15 K	1.731	1.662	1.602	1.546	1.488	1.428	1.365	1.3	1.232
308.15 K	1.48	1.453	1.407	1.35	1.288	1.224	1.159	1.095	1.033
318.15 K	1.314	1.365	1.353	1.306	1.24	1.164	1.085	1.006	0.9289

ClC(Cl)=C(Cl)Cl + CC(=O)c1ccccc1
298.15 K, 101 kPa
Conditions	viscosity [mPa·s]
x2 = 0.1255	0.893
x2 = 0.3215	1.023
x2 = 0.5397	1.198
x2 = 0.7329	1.382
x2 = 0.9142	1.555

CC(C)CCl + CC(C)(C)O
viscosity [mPa·s], 101.33 kPa
Conditions	x1 = 0.0982	x1 = 0.2011	x1 = 0.3047	x1 = 0.4029	x1 = 0.5031	x1 = 0.6023	x1 = 0.6979	x1 = 0.7997	x1 = 0.8948
298.15 K	2.345	1.477	1.065	0.8424	0.6988	0.604	0.5388	0.4863	0.3827
313.15 K	1.359	0.9661	0.7571	0.6303	0.5423	0.481	0.437	0.4053	0.3751

ClC(Cl)=C(Cl)Cl + CC(C)(C)O
303.15 K, 101.33 kPa
Conditions	viscosity [mPa·s]
x1 = 0.1027	2.16
x1 = 0.2143	1.557
x1 = 0.3299	1.249
x1 = 0.4102	1.122
x1 = 0.5188	1.006
x1 = 0.6036	0.946
x1 = 0.7072	0.895
x1 = 0.8124	0.852
x1 = 0.9075	0.821

O=[N+]([O-])c1ccccc1 + CC(C)(C)O
viscosity [mPa·s], 101.33 kPa
Conditions	x1 = 0.0627	x1 = 0.1307	x1 = 0.2059	x1 = 0.2864	x1 = 0.3758	x1 = 0.4746	x1 = 0.5843	x1 = 0.7067	x1 = 0.8442
298.15 K	3.205	2.576	2.256	2.001	1.838	1.711	1.655	1.697	1.681
303.15 K	2.375	2.152	1.896	1.732	1.622	1.506	1.468	1.477	1.538
